Test results published in patent publication US20260337153A1, “IONIZABLE AMINE LIPIDS” (Intellia Therapeutics, Inc., priority 2023, published 2026).
Several values for one entry are separate records, joined by “and”; a condition that tells them apart may be missing. Identical values can stand only once.

What was measured:
[1] = LNP encapsulation efficiency of RNA (Ribogreen fluorescence assay); format: physicochemical; conditions: sgRNA:mRNA 1:2
Method in brief: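 RiboGreen fluorescence (ex 488/em 525 nm) measured total RNA in 1×TE with 0.2% Triton X-100 and free RNA in 1×TE alone, against standard curves of the starting RNA; encapsulation = (total − free)/total. Total RNA alternatively quantified after Triton disruption by RP-IP HPLC, UV 260 nm.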

rat TTR = assay: Serum TTR level after LNP delivery (Rat Prealbumin (Transthyretin) ELISA); format: in vivo, rat (Sprague-Dawley); conditions: LNP with PEG2K-DMG
Experimental: Sprague-Dawley female rats, ranging from 6-10 weeks of age were used in each study. Animals were weighed and dosed based on individual body weight measured the morning of dosing. LNPs were dosed via the lateral tail vein in a volume of 2 mL per kilogram of animal body weight. The animals were periodically observed for adverse effects for at least 24 hours post dose.
For studies measuring in vivo editing in liver, Sprague-Dawley female rats were dosed at 0.1 mpk or 0.03 mpk, unless otherwise noted. Animals were euthanized at 6 or 7 days by carbon dioxide asphyxiation and a heart clip or by ex sanguination via cardiac puncture under isoflourane anesthesia. Blood was collected into serum separator tubes. Liver tissue was collected. Genomic DNA was isolated from the liver tissue for editing measurement by Next-Generation Sequencing (NGS).
Blood was collected and the serum was isolated as indicated. The total rat TTR serum levels were determined using a Rat Prealbumin (Transthyretin) ELISA Kit (Aviva Systems Biology, Cat. #OKIA00159). Briefly, sera were serial diluted with kit sample diluent to a final dilution of 10,000-fold. This diluted sample was then added to the ELISA plates and the assay was then carried out according to manufacturer's protocol.
In vivo editing efficiency for materials delivered with formulations including various amine lipid (or ionizable lipid) compounds in Experiments 1 through 14 as described in Tables 3 and 4 was assessed. Editing was measured using G000534 (SEQ ID NO: 5) which targets the rat TTR gene. Lipids described above were assessed for efficacy through in vivo editing experiments. LNPs were formulated at a 1:2 w/w ratio of sgRNA (SEQ ID NO: 5) and Cas9 mRNA (SEQ ID NO: 3). In Experiments 1 through 13, lipid components of the LNP are formulated in a molar ratio of 50% ionizable lipid, 38% cholesterol, 9% DSPC, and 3% PEG2K-DMG. In Experiment 14, lipid components of the LNP are formulated in a molar ratio of 50% ionizable lipid, 38% cholesterol, 9% DSPC, and 3% C13 Ether. The final LNPs used in different in vivo editing experiments were characterized to determine the encapsulation efficiency (% E), polydispersity index (PDI), and average particle size (Z-avg and number mean) according to the analytical methods provided above. The pKa values of each of the following ionizable lipids were also measured to be in the range of about 5.8 to about 7.6.
TSS was used as a vehicle-only negative control. The data are illustrated in FIGS. 1A through 14.

[2] = Table 3, Experiments 1-13, LNP 50% ionizable lipid, 38% cholesterol, 9% DSPC, 3% PEG2K-DMG

| SMILES | % E (encapsulation efficiency) ([1]; LNP with 50% ionizable lipid, 38% cholesterol, 9% DSPC, 3% C13 Ether (LNP #1, Compound 53: 3% PEG2K-DMG instead)) [%] | % E (encapsulation efficiency) [1, 2] | % E (encapsulation efficiency) ([1]; Table 5, PEG lipid C13 Ether) [%] | % E (encapsulation efficiency) ([1]; Table 5, PEG lipid C14 Ether) [%] | % E (encapsulation efficiency) ([1]; Table 5, PEG lipid PEG2K-DMG) [%] | % TSS (serum TTR relative to vehicle) (rat TTR; Experiment 1, 0.1 mpk) [%] | Serum TTR (rat TTR; Experiment 1, 0.1 mpk) [µg/mL] | % TSS (serum TTR relative to vehicle) (rat TTR; Experiment 2, 0.1 mpk) [%] | Serum TTR (rat TTR; Experiment 2, 0.1 mpk) [µg/mL] | % TSS (serum TTR relative to vehicle) (rat TTR; Experiment 5, 0.1 mpk) [%] | Serum TTR (rat TTR; Experiment 5, 0.1 mpk) [µg/mL] |
| --- | --- | --- | --- | --- | --- | --- | --- | --- | --- | --- | --- |
| CCCCC/C=C\C/C=C\CCCCCCCC(=O)OCC(COC(=O)CCC(OCCCCCCCC)OCCCCCCCC)COC(=O)OCCCN(CC)CC (stereo not drawn) [Compound 53] | 98 | 98% and 99% and 94% and 97% | 97 | 99 | 97 | 48 | 519.9 | 24 | 341.9 | 44 | 624.1 |
| CCCCC/C=C\C/C=C\CCCCCCCC(=O)OCC(COC(=O)CCC(OCCCCCCCC)OCCCCCCCC)COC(=O)NCCN(CC)CC (stereo not drawn) [Compound 54] |  | 88% |  |  |  | 48 | 512.9 |  |  |  |  |
| CCCCC/C=C\C/C=C\CCCCCCCC(=O)OCC(COC(=O)CCCC(=O)OC(CCCCCCCC)CCCCCCCC)COC(=O)OCCCN(CC)CC (stereo not drawn) [Compound 56] |  | 95% and 97% |  |  |  |  |  | 28 | 390.1 |  |  |
| CCCCC/C=C\C/C=C\CCCCCCCC(=O)OCC(COC(=O)CCCCCC(=O)OC(CCCCCCCC)CCCCCCCC)COC(=O)OCCCN(CC)CC (stereo not drawn) [Compound 57] |  | 96% |  |  |  |  |  | 30 | 412.3 |  |  |
| CCCCC/C=C\C/C=C\CCCCCCCC(=O)OCC(COC(=O)CCCC(=O)OC(CCCCCCCC)CCCCCCCC)COC(=O)NCCN(CC)CC (stereo not drawn) [Compound 58] |  | 87% and 90% |  |  |  | 38 | 406.3 | 14 | 198.8 |  |  |
| CCCCC/C=C\C/C=C\CCCCCCCC(=O)OCC(COC(=O)CCCCCC(=O)OC(CCCCCCCC)CCCCCCCC)COC(=O)NCCN(CC)CC (stereo not drawn) [Compound 59] |  | 83% and 82% |  |  |  | 50 | 533.0 | 20 | 276.6 |  |  |
